The target of this test is Gal-3 (Homo sapiens, UniProt P17931). The test is described as follows: Fluorescence anisotropy assay, inhibition of galectin / fluorescein tagged saccharide probe interaction. The class given is binding. Here is the method: The affinity of Example 1-59 for galectins were determined by a fluorescence anisotropy assay where the compound was used as an inhibitor of the interaction between galectin and a fluorescein tagged saccharide probe as described Sörme, P., Kahl-Knutsson, B., Huflejt, M., Nilsson, U. J., and Leffler H. (2004) Fluorescence polarization as an analytical tool to evaluate galectin-ligand interactions. Anal. Biochem. 334: 36-47, (Sarme et al., 2004)
Chain of Gal-3 (P17931 whole entry, species assumed): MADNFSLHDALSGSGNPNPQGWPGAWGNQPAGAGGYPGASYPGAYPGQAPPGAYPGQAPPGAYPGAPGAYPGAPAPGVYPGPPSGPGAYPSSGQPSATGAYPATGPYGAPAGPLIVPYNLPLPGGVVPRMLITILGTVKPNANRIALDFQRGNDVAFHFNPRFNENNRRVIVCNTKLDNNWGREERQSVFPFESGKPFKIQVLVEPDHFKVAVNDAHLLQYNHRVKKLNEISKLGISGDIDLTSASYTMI
On the technique in general: Fluorescence polarisation rises when a labelled molecule tumbles more slowly, as on binding a larger partner.
What is called Kd is the concentration at which binding is half-saturated. A low value points to higher affinity. Consider `COc1ccccc1-c1nn(C2C(O)[C@H](c3nc(C)nn3-c3cc(Cl)ccc3C(F)(F)F)OC(CO)[C@@H]2O)cc1-c1cc(F)c(F)c(F)c1` (stereo in doubt) [Example 52, 5-Chloro-1-{5-{3-deoxy-3-[4-(3,4,5-trifluorophenyl)-3-(2-methoxyphenyl)-1H-1,2-pyrazol-1-yl]-β-D-galactopyranosyl}-3-methyl-1H-1,2,4-triazol-1-yl}-2-(trifluoromethyl)benzene], for which binding was characterised by a dissociation constant (Kd) of 20 nM. `Cc1nc([C@@H]2OC(CO)[C@H](O)C(n3cc(-c4cc(F)c(F)c(F)c4)c(-c4ccccc4C)n3)C2O)n(-c2cc(Cl)ccc2C(F)(F)F)n1` (stereo in doubt) [Example 53, 5-Chloro-1-{5-{3-deoxy-3-[4-(3,4,5-trifluorophenyl)-3-(2-methylphenyl)-1H-1,2-pyrazol-1-yl]-β-D-galactopyranosyl}-3-methyl-1H-1,2,4-triazol-1-yl}-2-(trifluoromethyl)benzene] returned a Kd of 92 nM. In the case of `Cc1nc([C@@H]2OC(CO)[C@H](O)C(n3cc(-c4cc(F)c(F)c(F)c4)c(-c4cccc(F)c4)n3)C2O)n(-c2cc(Cl)ccc2C(F)(F)F)n1` (stereo in doubt) [Example 54, 5-Chloro-1-{5-{3-deoxy-3-[4-(3,4,5-trifluorophenyl)-3-(3-fluorophenyl)-1H-1,2-pyrazol-1-yl]-β-D-galactopyranosyl}-3-methyl-1H-1,2,4-triazol-1-yl}-2-(trifluoromethyl)benzene] it was 240 nM; in that of `Cc1nc([C@@H]2OC(CO)[C@H](O)C(n3cc(-c4cc(F)c(F)c(F)c4)c(-c4ccc(F)cc4)n3)C2O)n(-c2cc(Cl)ccc2C(F)(F)F)n1` (stereo in doubt) [Example 55, 5-Chloro-1-{5-{3-deoxy-3-[4-(3,4,5-trifluorophenyl)-3-(4-fluorophenyl)-1H-1,2-pyrazol-1-yl]-β-D-galactopyranosyl}-3-methyl-1H-1,2,4-triazol-1-yl}-2-(trifluoromethyl)benzene], 100 nM; in that of `Cc1nc([C@@H]2OC(CO)[C@H](O)C(n3cc(-c4ccc(C(F)(F)F)cc4)cn3)C2O)n(-c2cc(Cl)ccc2C(F)(F)F)n1` (stereo in doubt) [Example 56, 5-Chloro-1-{5-{3-deoxy-3-{4-[4-(trifluoromethyl)phenyl]-1H-1,2-pyrazol-1-yl}-β-D-galactopyranosyl}-3-methyl-1H-1,2,4-triazol-1-yl}-2-(trifluoromethyl)benzene], 110 nM.

In the case of `Cc1nc([C@@H]2OC(CO)[C@H](O)C(n3cc(-c4ccc(C)c(F)c4)cn3)C2O)n(-c2cc(Cl)ccc2C(F)(F)F)n1` (stereo in doubt) [Example 57, 5-Chloro-1-{5-{3-deoxy-3-[4-(3-fluoro-4-methylphenyl)-1H-1,2-pyrazol-1-yl]-β-D-galactopyranosyl}-3-methyl-1H-1,2,4-triazol-1-yl}-2-(trifluoromethyl)benzene], the Kd turned out to be 11 nM. Under `Cc1nc([C@@H]2OC(CO)[C@H](O)C(n3cc(-c4cccc(Cl)c4)cn3)C2O)n(-c2cc(Cl)ccc2C(F)(F)F)n1` (stereo in doubt) [Example 58, 1-{5-{3-[4-(3-Chlorophenyl)-1H-1,2-pyrazol-1-yl]-3-deoxy-β-D-galactopyranosyl}-3-methyl-1H-1,2,4-triazol-1-yl}-5-chloro-2-(trifluoromethyl)benzene] stands 97 nM; under `Cc1nc([C@@H]2OC(CO)[C@H](O)C(n3cc(-c4ccc(Cl)cc4)cn3)C2O)n(-c2cc(Cl)ccc2C(F)(F)F)n1` (stereo in doubt) [Example 59, 1-{5-{3-[4-(4-Chlorophenyl)-1H-1,2-pyrazol-1-yl]-3-deoxy-β-D-galactopyranosyl}-3-methyl-1H-1,2,4-triazol-1-yl}-5-chloro-2-(trifluoromethyl)benzene], 51 nM; under `Cc1nc2ccc(-n3cnnc3[C@@H]3OC(CO)[C@H](O)C(n4cc(-c5cc(F)c(F)c(F)c5)cn4)[C@@H]3O)cc2s1` (stereo partly drawn) [Example 2, 6-{3-{3-Deoxy-3-[4-(3,4,5-trifluorophenyl)-1H-1,2-pyrazol-1-yl]-β-D-galactopyranosyl}-4H-1,2,4-triazol-4-yl}-2-methylbenzothiazole], 39 nM.
